Like-named read-outs stand apart in the source and are kept apart here. Square brackets hold non-standard residues; d marks the D form. Peptide text beside a SMILES is read from it. * marks the point of attachment. DOTA = O=C(O)CN1CCN(CC(=O)O)CCN(CC(=O)*)CCN(CC(=O)O)CC1; Cha = N[C@@H](CC1CCCCC1)C(=O)O; Nle = CCCC[C@H](N)C(=O)O; Ahx = NCCCCCC(=O)O
Key:
[1] = tested on: BN/GRP receptor-positive MDA-MB-231 tumors; assay: Receptor blocking study in MDA-MB-231 tumor-bearing nude mice; format: in vivo
Description: For the receptor blocking studies, each animal was injected with excess cold of BN peptide (~ 200 μg) 20 min prior to the radiotracers injection. The animals (n = 2 per group) were sacrificed at 60 min post radiotracers injection and the % ID/g for the tumor and major organs was calculated as stated before.
^68Ga-labeled BN peptides were further investigated in nude mice carrying estrogen-independent and highly aggressive MDA-MB-231 xenografts in order to determine their potential for diagnosis of BN/GRP receptor-positive breast cancer in vivo (Table 4). […] (with 28% washout from the tumors over 2 h). […] When a blocking dose of 300 μg of nonradioactive BN peptide was injected intramuscularly for in vivo saturation of receptors 20 min prior to the administration of radiopeptide, it was observed that the uptake in the tumors was reduced by approximately 80% (0.47 ± 0.06% ID/g blocked vs. 2.32 ± 0.25% ID/g unblocked, P = 0.002), highlighting the specificity of the ^68Ga-labeled BN peptide for respective BN/GRP receptor-positive breast cancer cells. […] The tumor uptake values of other BN peptides varied from 1.78 ± 0.40% to 2.15 ± 0.33% ID/g at 1 h p.i and from 0.84 ± 0.13% to 1.37 ± 0.25% ID/g at 2 h p.i. (Table 4). With the blocking dose, good reduction in the tumors (from 51 to 80%) was attained validating the in vivo tumor receptor specificity of these radiolabeled BN peptides for BN/GRP receptor-positive breast cancer cells.

[2] = tested on: PC3 prostate carcinoma xenografts; format: in vivo, nude mice; details: for uptake in the PC3 tumors / tumor-to-blood ratio / tumor-to-muscle ratio: nude mice bearing PC3 xenografts
Description: BN/GRP receptor-positive MDA-MB-231 and PC3 cell lines (American Type Culture Collection, Rockville, USA) were grown as monolayers at 37 °C in a humidified atmosphere containing RPMI-1640 culture media with 10% fetal bovine serum (FBS) in tissue culture flasks. Twenty-four hours prior to conducting the tumor implantation, the media was replaced with RPMI-1640/10% FBS. The cells were grown to 80-90% confluency and harvested by trypsinization. After centrifugation, about 50 million cells were suspended in 1 mL media for implantation into mice. To prepare cells for inoculation, MDA-MB-231 or PC3 cancer cells with media were centrifuged, the media decanted, and the cell pellet was mixed with phosphate-buffered saline (PBS) to reach a concentration of approximately 5 million cells per 100 μL PBS.
Based on encouraging biological and tumor-targeting properties, ^68Ga-DOTA(cyclen)-Ahx-BN was further tested in nude mice bearing PC3 prostate carcinoma xenografts. […] Kidney was the only major organ which retained most of the radioactivity (up to 6% ID/g) after 2 h p.i. […] The tumor-to-blood and tumor-to-muscle ratios were 3.27 and 12.62 at 1 h and 2.85 and 11.40 at 2 h p.i., respectively (data not shown).

MDA-MB-231 tumor = assay: NanoPET/CT imaging of MDA-MB-231 tumor-bearing nude mice; format: in vivo; details: 60 min p.i.
Description: PET/CT scans were performed using a preclinical NanoPET/CT scanner (Mediso, Hungary) on MDA-MB-231 tumor-bearing ~ 8-week-ld female nude mice. Mice (19–23 g) were anesthetized prior to the imaging with a mixture of (100 μL, subcutaneous injection) ketamine and xylazine. One hour after the intravenous injection of radiolabeled BN peptide (100 μL peptide, 100–150 μCi, total peptide dose ~ 100 ng) via the tail vein into the anesthetized mouse, each mouse was placed in the camera in prone position and static image was acquired for 30 min. The acquired raw data in these imaging studies were reconstructed to visible image form using Interveiw Fusion software (Mediso, Hungary).

CCCC[C@H](NC(=O)[C@H](Cc1c[nH]cn1)NC(=O)[C@H](CC1CCCCC1)NC(=O)[C@@H](NC(=O)[C@H](C)NC(=O)[C@H](Cc1c[nH]c2ccccc12)NC(=O)[C@H](CCC(N)=O)NC(=O)[C@H](CS)NC(=O)CNC(=O)CNC(=O)CCCCCNC(=O)CN1CCN(CC(=O)O)CCN(CC(=O)O)CCN(CC(=O)O)CC1)C(C)C)C(=O)N[C@@H](CCSC)C(N)=O [^68Ga-DOTA-Ahx-BN Cyclen, metal not drawn] ({DOTA-Ahx}-GGCQWAV[Cha]H[Nle]M-NH2)
Tumor uptake, blocked ([1]; blocking dose of 300 μg nonradioactive BN peptide 20 min prior to radiopeptide, 1 h p.i., n = 2 per group): 0.47 ± 0.06 % ID/g | reduction of uptake in the tumors with blocking dose ([1]; blocking dose of nonradioactive BN peptide 20 min prior, 1 h p.i.): approximately 80% | blockade of uptake in pancreas with blocking dose ([1]; same blocking dose, maximum blockade): 80% | radioactivity retained in Kidney ([2]; mouse, in vivo): up to 6 % ID/g | uptake in the PC3 tumors ([2]; 1 h p.i.): 2.05 ± 0.54 % ID/g | tumor-to-blood ratio ([2]; 1 h p.i. (data not shown)): 3.27 | tumor-to-muscle ratio ([2]; 1 h p.i. (data not shown)): 12.62 | uptake in the PC3 tumors ([2]; 2 h p.i.): 1.34 ± 0.22 % ID/g | tumor-to-blood ratio ([2]; 2 h p.i. (data not shown)): 2.85 | tumor-to-muscle ratio ([2]; 2 h p.i. (data not shown)): 11.40 | Tumor visibility in PET image under blocking condition (MDA-MB-231 tumor; in the presence of 300 μg cold BN peptide): hardly detectable | Tumor visibility in PET image (MDA-MB-231 tumor; ~100 ng, ~100 μCi, unblocked): clearly visible
